Experimental findings from patent US12060588B2, “Methods of editing DNA methylation” (Whitehead Institute for Biomedical Research, priority 2016, dated 2024) are described below.

Experiment [1] deals with Snrpn promoter region and adjacent Dazl locus. As to the kind of experiment: Bisulfite sequencing of the Dazl-Snrpn region in mESCs. The experiment is classed as cell-based, mouse. The conditions noted are these: with target gRNAs. The method, then:
FIGS. 1A-IF depict activation of the Daz1-Snrpn-GFP reporter by dCas9-Tet1. […] FIG. 1B is a schematic representation of targeting the Snrpn promoter region by dCas9-Tet1 with specific gRNAs to erase methylation and activate GFP expression. […] Percentage of GFP positive cells were calculated by flow cytometric analysis of these cells 3-day post infection, and shown as the mean percentages of GFP positive cells±SD of two biological replicates. Note that the percentages of GFP-positive cells are expressed as the fraction of infected Cherry-positive cells. […] Scale bar: 250 um. Right: provides percentages of GFP positive colonies were quantified, and shown as the mean percentages of GFP positive cells±SD of two biological replicates. […] FIG. 1F provides methylation levels of individual CpGs in the Snrpn promoter region and the adjacent Dazl locus. Shown is the mean percentage±SD of two biological replicates.
Demethylation of specific CpGs: To test whether defined sequences could be demethylated, we introduced the dCas9-Tet1 construct in combination with gRNAs to target the Snrpn-GFP reporter inserted into the Dazl promoter (FIG. 1B and FIG. 9A). […] To assess the activation efficiency by dCas9-Tet1 with target gRNAs, we analyzed the cells infected by both viruses using FACS. […] We further analyzed the GFP-positive and -negative populations within infected Cherry-positive cells. […]

Another experiment deals with BDNF promoter IV. As to the kind of experiment: Bisulfite sequencing of BDNF promoter IV in mouse cortical neurons. The experiment is classed as cell-based. The conditions noted are these: with 4 BDNF gRNAs, in contrast to gRNA negative controls. As to the method: FIGS. 3A-3E depict targeted demethylation of BDNF promoter IV by dCas9-Tet1 to activate BDNF in neurons. FIG. 3A provides a schematic representation of targeting BDNF promoter IV by dCas9-Tet1 (dC-T) with specific gRNAs to erase methylation and activate BDNF expression. […] Bars are mean t SD of three biological replicates. FIG. 3C provides representative confocal images for BDNF induction in FIG. 3B. Top panel: BDNF expression was induced by 50 mM KCl treatment for 6 hrs. […] Stained in red for MAP2 (top two panels) or Cherry (bottom two panels), green for BDNF, blue for DAPI and grey for dCas9. Scale bar: 50 um. FIG. 3D depicts bisulfite sequencing of neurons in FIG. 3C. […] Shown is the mean percentage±SD of two biological replicates.
DNA replication-independent active demethylation has been proposed to operate in post-mitotic neurons (Guo et al., 2011; Martinowich et al., 2003). To test whether active demethylation can be induced in post-mitotic neurons, we applied the dCas9-Tet1 system to study the regulation of the BDNF gene. BDNF expression can be induced by neuronal activity accompanied by demethylation of its promoter IV (Chen et al., 2003; Martinowich et al., 2003). We designed 4 gRNAs targeting 11 CpGs in BDNF promoter IV (FIG. 11A) to determine whether dCas9-Tet1 can activate BDNF by inducing demethylation of this promoter (FIG. 3A). […]

Turning to “dCas9-Tet1: catalytically inactive Cas9 (dCas9) fused through NLS to the Tet1 catalytic domain, SEQ ID NO: 159; lentivirally expressed with gRNAs”, the “methylation status of Snrpn promoter region and adjacent Dazl locus” value in experiment [1] is “robust demethylation only in the Snrpn promoter region but not the adjacent Dad locus”. Moreover, in the experiment on BDNF promoter IV, the “methylation of BDNF promoter IV” value is listed as “significantly reduced methylation”.
